Measured values from patent US6506799B1, “Methods of treating cardiovascular diseases, dyslipidemia, dyslipoproteinemia, and hypertension with ether compounds” (Esperion Therapeutics, Inc., priority 1999, dated 2003).

Columns and labels:
[1] = tested on: chow fed male Sprague-Dawley rats; experiment: Serum lipids, apolipoproteins and weight gain in chow fed male Sprague-Dawley rats after seven days of treatment; assay type: in vivo, rat
Method: Illustrative compounds of the invention were administered daily at a dose of 100 mg/kg to chow fed male Sprague-Dawley rats for seven days in the morning by oral gavage in 1.5% carboxymethylcellulose/0.2% Tween-20 (dosing vehicle). Animals were weighed daily. Animals were allowed free access to rodent chow and water throughout the study. After the seventh dose, animals were sacrificed in the evening and blood serum was assayed for lipoprotein cholesterol profiles, serum triglycerides, total cholesterol VLDL, LDL, and HDL cholesterol, and the ratio of HDL cholesterol to that of VLDL plus LDL cholesterol, apolipoproteins A-I, C-II, C-III, and E by immunoelectrophoresis, and percent weight gain.
The five compounds were tested in two separate experiments. In each experiment, the experimental data were normalized against a control group of rats which received the dosing vehicle alone.

primary rat hepatocytes = experiment: Synthesis of non-saponified and saponified lipids (14C-acetate incorporation) in hepatocytes; assay type: cell-based; details: 100 μM; 14C-acetate 2 hr; vs no compound control
Method: A male Sprague-Dawley rat was anesthetized by administration of sodium pentobarbitol by intraparitoneal injection at 50 mg/kg. In situ perfusion of the liver was performed as follows. […] To digest the liver, DSC solution (6.7 mM KCl, 143 mM NaCl, 9.2 mM Na HEPES, 5 mM CaCl2-2H2O, 1.7 mM Fructose, 0.029 mM Phenol red, 0.2% BSA, 100 U/ml collagenase Type I, 93 U/ml Hyaluronidase, 160 BAEE/ml trypsin inhibitor, pH 7.5) was perfused through the liver at a flow rate of 30 ml/min for 6 minutes at a temperature of 37° C. After digestion, cells were dispersed in a solution of DMEM-(DMEM containing 2 mM GlutMax-1, 0.2% BSA, 5% FBS, 12 nM insulin, 1.2 μM hydrocortisone) to stop the digestion process. The crude cell suspension was filtered through three layers of stainless steel mesh with pore sizes of 250, 106, and 75 μm respectively. Filtered cells were centrifuged at 50×g for two minutes and the supernatant discarded. The resulting cell pellet was resuspended in DMEM and centrifuged again. This final cell pellet was resuspended in DMEM+HS solution (DMEM containing 2 mM GlutMax-1, 20 nM delta-aminolevulinic acid, 17.4 mM MEM non-essential amino acids, 20% FBS, 12 nM insulin, 1.2 µM hydrocortisone) and plated to form monolayer cultures at a density of 100×10^3 cells/cm^2 on collagen coated culture dishes. Four hours after initial plating, media was changed to DMEM+(DMEM containing 2 mM GlutMax-1, 20 nM delta-aminolevulinic acid, 17.4 mM MEM non-essential amino acids, 10% FBS, 12 nM insulin, 1.2 μM hydrocortisone) and remained on cells overnight.
To test the effect of illustrative compounds of the invention on synthesis rates of non-saponified and saponified lipids, the monolayer cultures were exposed to 1 μM of lovastatin or 100 μM Compound A, B, D, E or F in DMEM+ containing 1 μCi/ml ^14C-acetate. Control cells were exposed to the same media lacking lovastatin or the test compounds. All cells were exposed to 0.1% DMSO. Metabolic labeling with ^14C-acetate continued for 2 hr at 37° C. After labeling, cells were washed twice with 1 ml of PBS followed by lysing in 1 ml of deionized water. Cells were scraped from the dishes, transferred to glass tubes and sonicated. 2.5 ml of 2:1 chloroform/methanol mixture was added followed by 1.5 ml of Phosphate Buffered Saline (PBS). To correct for extraction efficiency in the upcoming extractions, 3000 dpm of ^3H-cholesterol was added to each tube. Tubes were shaken for 30 min. to extract lipids into the organic phase followed by centrifugation for 10 minutes at 1000×g to separate the organic and aqueous phases. The lower organic phase containing total lipids was removed and placed in a new tube. The organic solution was evaporated under N2. […]

[2] = 100 mg/kg, 7 days, compared to control, FIG. 3
[3] = 100 mg/kg, 7 days, vs vehicle, FIG. 2
[4] = 100 mg/kg/day oral gavage, 7 days, normalized against vehicle control

## CC(C)(CO)CCCCOCCCCC(C)(C)CO [Compound A, 6-(6-hydroxy-5,5-dimethylhexyloxy)-2,2-dimethyl-hexan-1-ol]
[1]; [2]
  elevation of apolipoprotein A-I: 16%
  elevation of apolipoprotein E: 46%
  reduction of apolipoprotein C-II: 20%
  reduction of apolipoprotein C-III: 16%
[1]; 100 mg/kg, 7 days, control 2.6±0.2
  ratio of HDL to non-HDL cholesterol (VLDL plus LDL): 6.2±1.0
[1]; 100 mg/kg, 7 days, vs control
  improvement in the ratio of HDL to non-HDL cholesterol: 2.44 fold
[1]; 100 mg/kg, 7 days, vs vehicle
  change in VLDL cholesterol: no change
  elevation in HDL cholesterol: 49%
  reduction in LDL cholesterol: 41%
[1]; [3]
  elevation of total serum cholesterol: 26%
  reduction of serum triglycerides: 31%
[1]; 100 mg/kg, after seven days, control 68.3±1.2%
  percentage body weight gain: 63.4±1.9%
[1]; [4]
  HDL-Cholesterol (% change): +21.1 % change
  LDL-Cholesterol (% change): −27.7 % change
  Triglyceride (% change): +7.6 % change
Primary rat hepatocytes
  reduction of the rate of non-saponified lipid synthesis: at least 85%
  reduction of the rate of saponified lipid synthesis: at least 85%
